{"source": "patent US10544136B2", "about": "“Modulators of sphingosine phosphate receptors” (The Scripps Research Institute, priority 2008, dated 2020)", "key": {"[1]": {"molecular_target": "S1P3 (Homo sapiens (Human), UniProt Q99500)", "sequence (Q99500 whole entry, species assumed)": "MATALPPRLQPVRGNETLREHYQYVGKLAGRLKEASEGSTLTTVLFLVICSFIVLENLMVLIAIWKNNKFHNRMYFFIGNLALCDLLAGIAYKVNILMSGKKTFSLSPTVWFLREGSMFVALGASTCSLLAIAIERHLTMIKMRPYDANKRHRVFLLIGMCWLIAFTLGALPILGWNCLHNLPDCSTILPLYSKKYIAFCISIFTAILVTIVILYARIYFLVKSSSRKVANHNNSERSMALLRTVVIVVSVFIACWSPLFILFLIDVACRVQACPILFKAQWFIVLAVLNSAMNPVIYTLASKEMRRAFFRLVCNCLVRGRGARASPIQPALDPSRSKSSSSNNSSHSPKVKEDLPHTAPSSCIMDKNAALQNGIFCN", "test": "S1P3 agonist assay (Ec50 S1P3Ag)", "type": "cell-based", "settings": "read-out: Ec 50 (S1P3Ag)"}, "[2]": {"molecular_target": "S1P1 (Homo sapiens (Human), UniProt P21453)", "sequence (P21453 whole entry)": "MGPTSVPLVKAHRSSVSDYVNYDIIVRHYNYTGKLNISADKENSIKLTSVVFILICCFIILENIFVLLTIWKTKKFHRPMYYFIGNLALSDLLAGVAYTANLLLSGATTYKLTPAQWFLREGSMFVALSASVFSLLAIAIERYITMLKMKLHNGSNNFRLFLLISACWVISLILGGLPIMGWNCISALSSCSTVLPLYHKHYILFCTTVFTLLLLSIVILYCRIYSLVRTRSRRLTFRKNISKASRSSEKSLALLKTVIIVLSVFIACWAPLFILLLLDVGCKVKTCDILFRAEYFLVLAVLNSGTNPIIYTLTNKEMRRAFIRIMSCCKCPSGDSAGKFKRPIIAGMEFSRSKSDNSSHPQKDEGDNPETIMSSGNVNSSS", "test": "S1P1 agonist assay (Ec50 S1P1Ag)", "type": "cell-based", "text": "The exact dosage will depend upon the activity of the compound, mode of administration, on the therapy desired, form in which administered, the subject to be treated and the body weight of the subject to be treated, and the preference and experience of the physician or veterinarian in charge. S1P1 agonist bioactivity of the compounds of the invention can be determined by use of an in vitro assay system which measures the activation of S1P1, which can be expressed as EC50 values, as are well known in the art inhibitors of the invention can be determined by the method described in the Examples."}}, "note": "Read-outs that look alike come from different tables or passages of the source.", "data": [{"compound": "CCOc1ccc(-c2nc(-c3ccncc3)no2)cc1OCC", "note": "[Compound 35]", "values": [{"measurement": "EC50", "setting": "[1]", "result": 0.661, "unit": "µM"}, {"measurement": "EC50", "setting": "[2]", "result": 3.7, "unit": "nM"}]}, {"compound": "CCOc1ccc(-c2nc(-c3cccc4c3CCC4N3CC[C@@H](O)C3)no2)cc1OCC", "note": "(stereo partly shown) [Compound 228]", "values": [{"measurement": "EC50", "setting": "[1]", "result": 2.9, "unit": "µM"}, {"measurement": "EC50", "setting": "[2]", "result": 17.8, "unit": "nM"}]}, {"compound": "FC(F)(F)c1cc(-c2nc(-c3ccncc3)no2)ccc1-c1ccccc1", "note": "[Compound 59]", "values": [{"measurement": "EC50", "setting": "[1]", "result": 5.6, "unit": "µM"}, {"measurement": "EC50", "setting": "[2]", "result": 10.8, "unit": "nM"}]}, {"compound": "CC(C)Cc1ccc(C(C)c2nc(-c3ccc(S(N)(=O)=O)cc3)no2)cc1", "note": "(stereo not shown) [Compound 16]", "values": [{"measurement": "EC50", "setting": "[1]", "result": 1.2, "unit": "µM"}, {"measurement": "EC50", "setting": "[2]", "result": 3.3, "unit": "nM"}]}, {"compound": "CCOc1ccc(-c2nc(-c3ccc(CN(C)C)c(C)c3)no2)cc1OCC", "note": "[Compound 203]", "values": [{"measurement": "EC50", "setting": "[1]; unit μM", "result": 10, "unit": "µM"}, {"measurement": "EC50", "setting": "[2]", "result": 12.2, "unit": "nM"}]}, {"compound": "CCOc1ccc(-c2nc(-c3cccc(CO)c3C)no2)cc1OCC", "note": "[Compound 177]", "values": [{"measurement": "EC50", "setting": "[1]", "result": 0.774, "unit": "µM"}, {"measurement": "EC50", "setting": "[2]", "result": 0.8, "unit": "nM"}]}, {"compound": "FC(F)(F)c1cc(-c2nc(-c3ccncc3)no2)cc(C(F)(F)F)c1", "note": "[Compound 104]", "values": [{"measurement": "EC50", "setting": "[1]", "result": 3.5, "unit": "µM"}, {"measurement": "EC50", "setting": "[2]", "result": 264, "unit": "nM"}]}, {"compound": "CCOc1ccc(-c2nc(-c3ccc4[nH]ccc4c3)no2)cc1OCC", "note": "[Compound 153]", "values": [{"measurement": "EC50", "setting": "[1]", "result": 2, "unit": "µM"}, {"measurement": "EC50", "setting": "[2]", "result": 6.9, "unit": "nM"}]}, {"compound": "CCOc1ccc(-c2nc(-c3cccc4c3CCN4)no2)cc1OCC", "note": "[Compound 123]", "values": [{"measurement": "EC50", "setting": "[1]", "result": 0.529, "unit": "µM"}, {"measurement": "EC50", "setting": "[2]", "result": 0.2, "unit": "nM"}]}, {"compound": "CCOc1ccc(-c2nc(-c3cccc4c3CCN4C)no2)cc1OCC", "note": "[Compound 151]", "values": [{"measurement": "EC50", "setting": "[1]", "result": 2.4, "unit": "µM"}, {"measurement": "EC50", "setting": "[2]", "result": 5.9, "unit": "nM"}]}, {"compound": "FC(F)(F)c1ccc(-c2noc(-c3ccnc(Cl)c3)n2)cc1", "note": "[Compound 7]", "values": [{"measurement": "EC50", "setting": "[1]", "result": 0.782, "unit": "µM"}, {"measurement": "EC50", "setting": "[2]", "result": 270, "unit": "nM"}]}]}
